Tests used:
[1] = system: 4T1 cells; assay: Cytotoxicity on 4T1 cells, LDH; assay type: cell-based, murine; conditions: Mus musculus, 4T1, LDH, 48 h
Description: (§1) The cellular viability tests were carried out on murine mammary tumor 4T1 cells characterized as negative triples (HER2−, ER−, PR−).
(§2) For this experiment, a cell culture medium was prepared. The culture medium consists of Dulbecco's Modified Eagle Medium (DMEM, marketed by Westburg under the reference LO BE12-604F), comprising 4.5 g/L glucose with L-glutamine, to which 10% of fetal calf serum (FCS) and 50 U/mL of penicillin/streptomycin are added. The 4T1 cells are introduced into this culture medium.
(§3) 96-well plates were seeded with 2000 4T1 cells per well. After 72 hours (h) of culture in normal conditions, i.e. in an incubator at a temperature of 37° C. at 5% CO2, the 4T1 cells are treated for 48 h with DX101, DX107, DX113, DX117, DX119, DX121 or DX131 at 100 nM, 1 μM, 2.5 μM and 10 μM. A control condition (CTL) is also carried out in parallel using the protocol described above but without treatment with the molecules DX101, DX107, DX113, DX117, DX119, DX121, DX131 or DX133.
(§4) For the second method, the percentage viability is determined using assay of the activity of the enzyme LDH (lactate dehydrogenase) in the cellular supernatants using the kit non radioactive cytotoxicity assay kit (Promega). LDH is an enzyme released in the supernatant of dead cells. The higher the LDH activity in the supernatant, the greater is the cell death. In this enzyme test, the LDH released converts a violet tetrazolium salt to formazan, of red color, absorbing at 490 nm. The intensity of the red color is proportional to the number of dead cells. After 48 h of treatment, the supernatants are transferred to a new 96-well plate and are incubated for 30 minutes in the presence of the substrate mix at room temperature. The reaction is stopped using the stop buffer and the absorbance is determined at 490 nm. The percentage cell death is determined here using a control 100% of maximum activity of LDH (carried out with untreated cells incubated in the presence of the lysis solution for 45 minutes at 37° C. just before adding the substrate mix), and the cellular viability in each well is then deduced from this percentage. IC50 is then determined as explained in the preceding paragraph.

[2] = system: BT-474 human mammary tumor cells; assay: Cytotoxicity on BT-474 cells, MTT; assay type: cell-based; conditions: BT-474, MTT, 48 h; for Mean LogIC50 (±SEM): log of IC50 in μM; for IC50: Homo sapiens, read-out: IC50
Description: (§5) Cellular viability is measured by three different methods. For the first method, MTT labeling is carried out at 48 hours. This test is based on the use of the tetrazolium salt MTT (3-(4,5-dimethylthiazol-2-yl)-2,5-diphenyltetrazolium bromide). The tetrazolium is reduced by mitochondrial succinate dehydrogenase of active living cells, to formazan, a precipitate of a violet color. The quantity of precipitate formed is proportional to the quantity of living cells but also to the metabolic activity of each cell. […] After 48 hours, the medium is aspirated, and the cells are incubated with MTT (0.5 mg/ml in culture medium) for about 3 hours. The MTT solution is aspirated and the violet crystals are dissolved in dimethylsulfoxide (DMSO). The OD (optical density) is measured at 550 nm. The percentage viability is then determined in each well relative to the CTL and the IC50 (concentration for which there are still 50% of living cells) is determined for each molecule with Prism software using the nonlinear regression straight line (log(inhibitor) vs. Response).
(§6) The cellular viability tests were also carried out on BT-474 human mammary tumor cells (characterized as being positive triples HER2+, ER+, PR+). The BT-474 cells are in a cell culture medium identical to the preceding example and are seeded in 24-well plates at 70 000 cells per well, for determination of cellular viability using trypan blue, or in 96-well plates at 13 000 cells per well for determination of cellular viability using the MTT or LDH assay. After 96 hours (h) of culture in normal conditions, i.e. in an incubator at a temperature of 37° C. at 5% CO2, the BT-474 cells are treated for 48 h with DX101, DX107, and DX113 at 100 nM, 1 μM, 2.5 μM and 10 μM. A control is also carried out using the protocol described above but without treatment with the molecules DX101, DX107, DX113, DX117, DX119, DX121 or DX131.
(§7) After trypsin digestion for 10 minutes at 37° C., cell survival was quantified, also by a trypan blue assay with automatic counting with the Biorad TC20 equipment (TC20™ Automated Cell Counter). The trypan blue assay is based on the cell membrane integrity, which is broken in the dead cells. Trypan blue stains the dead cells blue. The Biorad TC20 cell counter counts the proportion of blue cells and non-blue cells, relative to the cell percentages. The percentage viability is then determined in each well relative to the untreated cells and the IC50 is determined as explained in the preceding example. The percentage viability of the BT-474 cells was determined using the MTT and LDH assay, carried out as described in the preceding example.

[3] = system: 4T1 cells; assay: Cytotoxicity on 4T1 cells, CellTox Green Cytotoxicity Assay; assay type: cell-based, murine; conditions: Mus musculus, 4T1, Green Cytotoxicity Assay, 48 h
Description: as §1, §2, §3
For the third method, the percentage viability is determined using the kit CellTox Green Cytotoxicity Assay (Promega). This assay measures cell death via a change in membrane integrity. […] As a result, the higher the fluorescence in the wells, the greater is the cell death. After 48 h of treatment, the cells are incubated for a minimum of 15 minutes in the presence of the Celltox green reagent at room temperature and the fluorescence is read at […]. The percentage cell death is determined using the control 100% of cell death (carried out for untreated cells incubated in the presence of the lysis solution for 30 minutes at 37° C. before adding the Celltox green reagent), and the cellular viability in each well is then deduced from this percentage. IC50 is then determined as explained above.

[4] = system: 4T1 cells; assay: Cytotoxicity on 4T1 cells, MTT; assay type: cell-based, murine; conditions: Mus musculus, 4T1, MTT, 48 h
Description: as §1, §2, §3, §5

[5] = system: BT-474 human mammary tumor cells; assay: Cytotoxicity on BT-474 cells, LDH; assay type: cell-based; conditions: BT-474, LDH, 48 h; for Mean LogIC50 (±SEM): log of IC50 in μM; for IC50: Homo sapiens, read-out: IC50
Description: as §4, §6, §7

[6] = system: BT-474 human mammary tumor cells; assay: Cytotoxicity on BT-474 cells, trypan blue; assay type: cell-based; conditions: BT-474, trypan blue, 48 h
Description: as §6, §7

[7] = Pharmacokinetic study of DX117 (LC/MS in plasma); assay type: in vivo; conditions: rat, 50 mg/kg, administered compound assayed
Excerpt: The following study is a determination by LC/MS in plasma of the various molecules over 3 days (11 measurement points at the end). The graphs are always presented in comparison with DX101, which is the reference. […]

[8] = log of IC50 in μM, read-out: Mean LogIC50 (±SEM) (converted)

SMILES	IC50 [1, 8] [µM]	IC50 ([1]; read-out: IC50) [µM]	Mean LogIC50 (±SEM) [2]	IC50 [2] [µM]	IC50 [3, 8] [µM]	IC50 ([3]; read-out: IC50) [µM]	IC50 [4, 8] [µM]	IC50 ([4]; read-out: IC50) [µM]	Mean LogIC50 (±SEM) [5]	IC50 [5] [µM]	Mean LogIC50 (±SEM) ([6]; log of IC50 in μM)	IC50 ([6]; Homo sapiens) [µM]	Concentration max [7] [nM]	Area under curve ([7]; 0-72 h)
CCCCCC(=O)O[C@H]1CC[C@]2(C)[C@H]3CC[C@]4(C)[C@@H]([C@H](C)CCCC(C)C)CC[C@H]4[C@@H]3C[C@@H](NCCc3cnc[nH]3)[C@@]2(O)C1 [DX113, 5α-hydroxy-6β-[2-(1H-imidazol-4-yl)-ethylamino]-cholestan-3β-yl hexanoate]	5.25	5.28	1.33 ± 0.07	21.4	11	10.9	18.2	18.2	1.38 ± 0.07	23.7	1.09 ± 0.15	12.3		
CC(C)CCCC(C)[C@H]1CCC2C3C[C@@H](NCCc4c[nH]cn4)[C@@]4(O)C[C@@H](OC(=O)NCCc5c[nH]cn5)CC[C@]4(C)C3CC[C@@]21C (stereo partly drawn) [DX117, 5α-hydroxy-6β-[2-(1H-imidazol-4-yl)ethylamino]-cholestan-3β-yl-(2-(1H-imidazol-4-yl)ethyl)carbamate]	8.32	8.31	0.79 ± 0.06	6.17	9.55	9.54	11	10.9	0.72 ± 0.18	5.25			76.67	2123
CCCCOC(=O)O[C@H]1CC[C@]2(C)[C@H]3CC[C@]4(C)[C@@H]([C@H](C)CCCC(C)C)CC[C@H]4[C@@H]3C[C@@H](NCCc3c[nH]cn3)[C@@]2(O)C1 [DX119, 5α-hydroxy-6β-[2-(1H-imidazol-4-yl)ethylamino]cholestan-3β-yl butyl carbonate]	3.09	3.12	1.33 ± 0.06	14.5	3.63	3.67	9.33	9.23	1.41 ± 0.01	25.4				

Source: patent US20240002429A1, “PRODRUG OF 5a-HYDROXY-6ß-[2-(1H-IMIDAZOL-4-YL)ETHYLAMINO]CHOLESTAN-3ß-OL AND PHARMACEUTICAL COMPOSITIONS COMPRISING SAME FOR USE IN THE TREATMENT OF CANCER” (priority 2020, published 2024)
